Data set [1] deals with T1, SynGUN4 (Synechocystis sp. PCC 6803, UniProt P72583).
T1 construct: gene sll0558; full length, residues 1-233; E. coli BL21(DE3)
Description: tryptophan fluorescence quenching. It counts as binding.

The target of data set [2] is T2, SynGUN4 (Synechocystis sp. PCC 6803, UniProt P72583, A219G).
T2 construct: gene sll0558; full length, residues 1-233; E. coli BL21(DE3)
Description: tryptophan fluorescence quenching. In kind it is binding. Particulars: read-out: dissociation constant. An excerpt: (§1) tryptophan fluorescence quenching on SynGUN4

Data set [3] concerns the target T3, SynGUN4 (Synechocystis sp. PCC 6803, UniProt P72583, L222A).
T3 construct: gene sll0558; full length, residues 1-233; E. coli BL21(DE3)
Description: tryptophan fluorescence quenching. To be noted: read-out: dissociation constant. In kind it is binding.
Source text: as §1

Data set [4] addresses T4, SynGUN4 (Synechocystis sp. PCC 6803, UniProt P72583, R113A).
T4 construct: gene sll0558; full length, residues 1-233; E. coli BL21(DE3)
Description: tryptophan fluorescence quenching. It counts as binding. Particulars: read-out: dissociation constant.
Source text: as §1

The target in data set [5] is T5, SynGUN4 (Synechocystis sp. PCC 6803, UniProt P72583, R214A).
T5 construct: gene sll0558; full length, residues 1-233; E. coli BL21(DE3)
Description: tryptophan fluorescence quenching. In kind it is binding. To be noted: read-out: dissociation constant.
Source text: as §1

Substrate in data set [6]: CC1=C(CCC(=O)O)c2cc3nc(cc4[nH]c(cc4C)cc4[nH]c(cc1n2)cc4C)C(C)=C3CCC(=O)O
Description: Mg-Deutero formation by fluorescence. It counts as biochemical, Synechocystis sp. PCC 6803. Particulars: no SynGUN4, 200 nM ChlH (methods: 0.1 μM ChlH), 20 mM MgCl2, 5 mM ATP, 50 mM MOPS-KOH pH 7.7, 1 mM DTT, 34 °C.

Where two headings read alike, the source gives them in different places.

T1 sequence (P72583 whole entry, the tested form may be a part): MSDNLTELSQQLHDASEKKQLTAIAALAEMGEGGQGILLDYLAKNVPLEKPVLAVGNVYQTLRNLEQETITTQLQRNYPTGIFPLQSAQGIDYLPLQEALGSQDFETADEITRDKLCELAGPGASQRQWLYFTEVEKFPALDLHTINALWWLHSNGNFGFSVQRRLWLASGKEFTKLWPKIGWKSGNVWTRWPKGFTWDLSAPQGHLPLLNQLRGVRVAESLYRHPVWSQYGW
T5 sequence (P72583 whole entry R214A, the tested form may be a part): as the sequence (P72583 whole entry, the tested form may be a part) above, with R214A counted along it
T4 sequence (P72583 whole entry R113A, the tested form may be a part): as the sequence (P72583 whole entry, the tested form may be a part) above, with R113A counted along it
T3 sequence (P72583 whole entry L222A, the tested form may be a part): as the sequence (P72583 whole entry, the tested form may be a part) above, with L222A counted along it
T2 sequence (P72583 whole entry A219G, the tested form may be a part): as the sequence (P72583 whole entry, the tested form may be a part) above, with A219G counted along it

On to `C=CC1=C(C)C2=NC1=Cc1c(C)c(C=C)c3[n]1[Co+][n]1c(c(C)c(CCC(=O)O)c1=CC1=NC(=C3)C(C)=C1CCC(=O)O)=C2` [Co-Proto], for which, on SynGUN4 [1] (50 mM MOPS-KOH pH 7.7, 150 mM NaCl, 1 mM DTT, one-site fit), the Kd was 2.67 ± 0.856 µM.
Turning to `CC1=C(CCC(=O)O)c2cc3nc(cc4[nH]c(cc4C)cc4[nH]c(cc1n2)cc4C)C(C)=C3CCC(=O)O` [Deutero], the Kd at SynGUN4 [2] was 1.56 ± 0.459 µM; at SynGUN4 [3] it was 6.61 ± 1.02 µM; on SynGUN4 [4], 7.83 ± 1.99 µM; on SynGUN4 [5], 10.9 ± 4.06 µM; at SynGUN4 [1] it was 0.865 ± 0.146 µM.

B1: Synechocystis Mg-chelatase (ChlH, ChlD, ChlI) (Synechocystis sp. PCC 6803 substr. Kazusa) (protein)
chain: MFTNVKSTIRRVDPEALNGRQLLKVVYVVLESQYQSALSAAVRNINRTNSSLAIQLTGYLIEELRDPENYANFKHDVSEANLFIASLIFIEDLADKVVEAVTPYRDNLDAAIVFPSMPQVMRLNKMGSFSMAQLGQSKSAIAQFMKKRKENSSGAGFQDAMLKLLRTLPTVLKYLPVEKAQDARNFMLSFQYWLGGSQENLENFLLMLTDKYVYPDLGLDKLVNYQEPVVYPDMGIWHPLSMQMFENVKDYLEWYNQRPDISEDLKDPLAPCIGLIMQRTHLVTGDDAHYVGMVQELEAMGARVICVFSGGLDFSKPVNEYFWDKSVNGVEPLPIVDAVVSLTGFALVGGPARQDHPRAIESLKKLNRPYMCALPLVFQTTEEWEASDLGLHPIQVALQIAIPELDGAIEPIILSGRDGSTGRAIALQDRLEAIAQRAMKWANLRKKPKLDKKVAITVFSFPPDKGNVGTAAYLDVFGSIYEVMKGLQGNGYDVQDLPGSAKELMEAVIHDAQAQYNSPELNIAHRMSVEQYERLTPYSVRLEENWGKPPGHLNSDGQNLLIYGKEFGNVFIGVQPTFGYEGDPMRLLFSRSASPHHGFAAYYTYLNHIWKADAVLHFGTHGSLEFMPGKQMGMSGECYPDNLIGTIPNLYYYAANNPSEATIAKRRGYASTISYLTPPAENAGLYKGLQELNELIGSYQTLKDSGRGIQIVNTIMDQARICNLDQDVNLPDINAEEMDQGQRDTIVGSVYRKLMEIESRLLPCGLHVIGQPPSAEEAIATLVNIASLDREDEGIWALPTLIAESIGRNMEEIYRNSDKGILADVELLQDITLATRAAVAALVQEQINADGRVSFVSKLNFFKIGKKAPWVKSLCDSGYPNVNEEKLKPLFEYLEFCLEQVCADNEFGGLLQALEGEYVLPGPGGDPIRNPNVLPTGKNIHALDPQSIPTLAAVQSAKVVVDRLLERQRAENGGNYPETIASVLWGTDNIKTYGESLAQIMWMVGAKPVPDALGRVNKIELVPLEELGRPRIDVVVNCSGVFRDLFINQMNLLDQAVKLAAEADEPLEMNFVRKHALEQAEEMGIGVREAATRIFSNASGSYSSNVNLAVENSSWEDESELQEMYLKRKSFAFNSDNPGMMDQNRDMFERALKTADATFQNLDSSEISLTDVSHYFDSDPTKLISTLRDDGKAPAAYIADTTTANAQVRTLSETVRLDARTKLLNPKWYEGMLSHGYEGVRELSKRLVNTMGWSATAGAVDNWVYEDANSTFIKDEEMCKRLMDLNPNSFRRMVSTLLEVNGRGYWETSDENLERLQELYQEVEDRIEGVE
notes: with Magnesium-chelatase subunit ChlD; Magnesium-chelatase subunit ChlI
B1: the Km in data set [6] is 7.46 ± 3.24 µM.

These data come from paper PMC1084334 (PLoS Biology, 2005).
